# ChEMBL document CHEMBL3351771, “Development of inhibitors of the 2C-methyl-D-erythritol 4-phosphate (MEP) pathway enzymes as potential anti-infective agents” (J Med Chem, 2014)
# Assays:
# [1] = target: T1, 1-deoxy-D-xylulose-5-phosphate synthase (Escherichia coli O127:H6 (strain E2348/69 / EPEC), UniProt B7UJP3); test: Inhibition of Escherichia coli DXS
# T1 sequence (B7UJP3 whole entry): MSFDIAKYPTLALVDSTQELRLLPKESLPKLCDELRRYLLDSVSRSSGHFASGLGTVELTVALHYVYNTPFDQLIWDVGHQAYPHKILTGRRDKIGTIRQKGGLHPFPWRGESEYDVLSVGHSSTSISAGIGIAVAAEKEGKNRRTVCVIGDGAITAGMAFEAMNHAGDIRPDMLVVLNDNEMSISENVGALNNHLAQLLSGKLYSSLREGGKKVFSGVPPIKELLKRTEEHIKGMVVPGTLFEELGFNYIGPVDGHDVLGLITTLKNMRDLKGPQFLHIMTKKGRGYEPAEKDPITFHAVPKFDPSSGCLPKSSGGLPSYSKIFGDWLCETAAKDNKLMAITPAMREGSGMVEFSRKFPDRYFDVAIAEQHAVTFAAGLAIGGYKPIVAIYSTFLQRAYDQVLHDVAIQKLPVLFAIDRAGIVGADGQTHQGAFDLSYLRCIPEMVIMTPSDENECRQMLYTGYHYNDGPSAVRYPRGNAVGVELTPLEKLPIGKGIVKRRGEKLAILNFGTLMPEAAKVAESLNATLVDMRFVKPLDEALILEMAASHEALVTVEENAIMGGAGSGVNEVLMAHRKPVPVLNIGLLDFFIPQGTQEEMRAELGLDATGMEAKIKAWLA
# Escherichia coli [2] = test: Inhibition of Escherichia coli IspF at 500 uM after 30 mins preincubation
# Escherichia coli [3] = test: Inhibition of Escherichia coli IspF at 500 uM
# [4] = Inhibition of Mycobacterium smegmatis IspD; parameters: species or system Mycolicibacterium smegmatis
# [5] = Inhibition of Escherichia coli IspE
# [6] = Inhibition of Yersinia pestis DXS
# [7] = Inhibition of Salmonella enteric DXS; parameters: species or system Salmonella enterica
# [8] = target: T2, 1-deoxy-D-xylulose-5-phosphate synthase (Mycobacterium tuberculosis, UniProt P9WNS3); test: Inhibition of Mycobacterium tuberculosis DXS
# T2 sequence (P9WNS3 whole entry): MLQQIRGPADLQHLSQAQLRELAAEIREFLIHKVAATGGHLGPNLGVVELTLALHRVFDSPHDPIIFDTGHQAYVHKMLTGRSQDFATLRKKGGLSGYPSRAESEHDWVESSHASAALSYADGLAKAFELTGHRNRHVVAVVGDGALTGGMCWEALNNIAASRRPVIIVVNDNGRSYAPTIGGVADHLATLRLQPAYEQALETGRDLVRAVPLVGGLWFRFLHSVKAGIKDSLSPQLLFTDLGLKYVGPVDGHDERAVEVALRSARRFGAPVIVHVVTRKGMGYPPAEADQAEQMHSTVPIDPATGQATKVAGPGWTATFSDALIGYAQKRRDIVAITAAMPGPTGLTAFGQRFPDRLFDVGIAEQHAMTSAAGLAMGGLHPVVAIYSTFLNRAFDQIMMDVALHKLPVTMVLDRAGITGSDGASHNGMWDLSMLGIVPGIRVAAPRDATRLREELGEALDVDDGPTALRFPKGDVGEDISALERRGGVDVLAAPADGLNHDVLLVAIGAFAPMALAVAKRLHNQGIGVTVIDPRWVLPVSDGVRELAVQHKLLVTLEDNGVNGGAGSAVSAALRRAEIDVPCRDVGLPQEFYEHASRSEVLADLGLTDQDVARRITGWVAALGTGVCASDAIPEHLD
# [9] = Inhibition of Aquifex aeolicus IspE
# [10] = tested on: Mycobacterium tuberculosis; test: Antimicrobial activity against Mycobacterium tuberculosis; assay type: functional, organism-based
# [11] = target: T3, 1-deoxy-D-xylulose 5-phosphate reductoisomerase (Mycobacterium tuberculosis, UniProt P9WNS1); test: Inhibition of Mycobacterium tuberculosis Dxr
# T3 sequence (P9WNS1 whole entry): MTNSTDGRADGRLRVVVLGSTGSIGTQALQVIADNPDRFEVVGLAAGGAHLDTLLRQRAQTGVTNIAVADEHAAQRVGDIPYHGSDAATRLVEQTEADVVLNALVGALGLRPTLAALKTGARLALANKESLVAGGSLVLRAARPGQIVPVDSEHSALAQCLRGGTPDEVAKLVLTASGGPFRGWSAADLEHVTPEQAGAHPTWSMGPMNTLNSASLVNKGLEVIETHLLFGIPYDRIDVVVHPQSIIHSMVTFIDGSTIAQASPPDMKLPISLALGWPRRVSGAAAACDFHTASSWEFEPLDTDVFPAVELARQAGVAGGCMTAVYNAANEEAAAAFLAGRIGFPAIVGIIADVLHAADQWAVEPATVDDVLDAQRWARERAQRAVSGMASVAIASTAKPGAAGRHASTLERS
# Aquifex aeolicus = test: Inhibition of Aquifex aeolicus IspH assessed as residual activity at 1 mM
# [12] = Inhibition of Plasmodium falciparum NF54 IspE
# [13] = target: T4, 1-deoxy-D-xylulose-5-phosphate synthase (Haemophilus influenzae (strain 86-028NP), UniProt Q4QKG6); test: Inhibition of Haemophilus influenzae DXS
# T4 sequence (Q4QKG6 whole entry): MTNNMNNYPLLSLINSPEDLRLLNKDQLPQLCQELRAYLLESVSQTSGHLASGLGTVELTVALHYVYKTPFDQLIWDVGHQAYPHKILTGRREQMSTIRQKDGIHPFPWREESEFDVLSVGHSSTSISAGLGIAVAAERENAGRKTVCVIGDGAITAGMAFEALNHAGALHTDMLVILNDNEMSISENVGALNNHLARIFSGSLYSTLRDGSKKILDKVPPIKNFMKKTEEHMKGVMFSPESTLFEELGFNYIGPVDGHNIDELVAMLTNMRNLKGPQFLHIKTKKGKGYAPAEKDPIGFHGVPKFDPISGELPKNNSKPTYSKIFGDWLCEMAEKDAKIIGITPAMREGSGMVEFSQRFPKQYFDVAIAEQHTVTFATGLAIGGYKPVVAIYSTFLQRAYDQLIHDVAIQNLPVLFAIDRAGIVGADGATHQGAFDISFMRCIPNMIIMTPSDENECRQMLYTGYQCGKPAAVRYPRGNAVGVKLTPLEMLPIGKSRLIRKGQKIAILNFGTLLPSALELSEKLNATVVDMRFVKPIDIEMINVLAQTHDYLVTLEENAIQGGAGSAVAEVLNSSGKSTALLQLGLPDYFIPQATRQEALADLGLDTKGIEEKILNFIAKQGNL
# [14] = Inhibition of Aquifex aeolicus IspH
# [15] = Inhibition of tomato IspE; parameters: species or system Solanum lycopersicum
# [16] = Inhibition of Arabidopsis thaliana IspD
# [17] = target: T5, 1-deoxy-D-xylulose-5-phosphate synthase (Deinococcus radiodurans (strain ATCC 13939 / DSM 20539 / JCM 16871 /LMG 4051 / NBRC 15346 / NCIMB 9279 / R1 / VKM B-1422), UniProt Q9RUB5); test: Inhibition of Deinococcus radiodurans DXS
# T5 sequence (Q9RUB5 whole entry): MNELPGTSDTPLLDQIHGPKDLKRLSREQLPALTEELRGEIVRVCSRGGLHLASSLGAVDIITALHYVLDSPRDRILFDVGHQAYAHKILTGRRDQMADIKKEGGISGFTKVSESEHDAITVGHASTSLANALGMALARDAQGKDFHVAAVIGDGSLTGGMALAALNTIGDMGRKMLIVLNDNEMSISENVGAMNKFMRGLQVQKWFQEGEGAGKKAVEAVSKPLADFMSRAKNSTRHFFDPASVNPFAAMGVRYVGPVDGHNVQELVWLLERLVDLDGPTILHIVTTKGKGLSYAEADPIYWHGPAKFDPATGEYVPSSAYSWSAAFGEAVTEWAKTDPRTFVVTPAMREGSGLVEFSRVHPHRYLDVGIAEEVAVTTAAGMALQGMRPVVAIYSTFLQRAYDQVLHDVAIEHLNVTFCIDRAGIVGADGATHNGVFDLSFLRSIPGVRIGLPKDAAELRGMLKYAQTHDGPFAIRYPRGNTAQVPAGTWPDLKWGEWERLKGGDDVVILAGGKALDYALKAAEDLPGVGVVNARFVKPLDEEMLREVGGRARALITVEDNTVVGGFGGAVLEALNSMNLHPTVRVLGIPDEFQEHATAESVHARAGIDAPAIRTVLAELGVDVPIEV
# [18] = Inhibition of Escherichia coli IspG
# [19] = Inhibition of Escherichia coli IspD
# [20] = Inhibition of Plasmodium falciparum Dxr
# [21] = Inhibition of Chlamydomonas DXS
# Haemophilus influenzae = test: Antimicrobial activity against Haemophilus influenzae; assay type: functional
# [22] = Inhibition of Arabidopsis thaliana DXS
# [23] = Inhibition of Plasmodium falciparum IspF
# [24] = Inhibition of Mycobacterium tuberculosis IspF
# [25] = target: T2, 1-deoxy-D-xylulose-5-phosphate synthase; test: Binding affinity to Mycobacterium tuberculosis DXS
# [26] = target: T5, 1-deoxy-D-xylulose-5-phosphate synthase; test: Binding affinity to Deinococcus radiodurans DXS
# Escherichia coli [27] = test: Induction of Escherichia coli IspF assessed as fold increase in activity at 500 uM
compound,measurement,setting,value
CC(=O)P(=O)(O)OCc1ccccc1,Ki,[1],10.4 µM
C[C@@](CO)(OP(=O)(O)O)[C@H](O)COP(=O)(O)CP(=O)(O)OC[C@H]1O[C@@H](n2ccc(N)nc2=O)[C@H](O)[C@@H]1O,inhibition,Escherichia coli [2],37%
same,inhibition,Escherichia coli [3],0%
CCCCCCCCCCCC[N+](C)(C)CCOc1ccccc1.[Br-] [DOMIPHEN BROMIDE],IC50,[4],33 µg/mL
COc1ccccc1-c1cnc(N)c(C#CCNS(=O)(=O)C2CC2)c1,IC50,[5],242 µM
CCCCOP(=O)(O)C(C)=O,Ki,[1],5.6 µM
same,Ki,[6],7.5 µM
same,Ki,[7],8.4 µM
same,Ki,[8],4 µM
Nc1nc(=O)n(C2CCCS2)cc1S(=O)(=O)c1ccccc1 (centres undefined),IC50,[9],> 500 µM
same,IC50,[5],220 µM
O=C(CCCc1ccccc1)N(O)CCCP(=O)(O)O,IC50,[10],17.8 µM
same,IC50,[11],17.8 µM
CCOP(=O)(O)C(C)=O,Ki,[1],6.7 µM
Oc1csc(Nc2nccs2)n1,IC50,[5],160 µM
C/C(=C/CONS(=O)(=O)NC(=O)OC(C)(C)C)CO,Activity,Aquifex aeolicus,61%
NC1=N/C(=N\NC(=O)c2ccccn2)c2ccc3ccccc3c21,IC50,[12],0.058 µM
Nc1nc(=O)n(C2CCCS2)cc1C#CCNS(=O)(=O)C1CC1 (centres undefined),IC50,[5],1.7 µM
CC(C)(C(=O)O)C(=O)N(O)Cc1ccccc1Cl,IC50,[13],1 µM
COC(c1cn(CC#Cc2cn(C3CCCS3)c(=O)nc2N)c(C2CCCCC2)n1)C(F)(F)F (centres undefined),IC50,[5],9.9 µM
O=P(O)(O)OP(=O)(O)OCc1cccnc1,IC50,[14],38 µM
NC1=N/C(=N\NC(=O)c2cc(Cl)ccn2)c2ccc3ccccc3c21,IC50,[15],7.2 µM
COc1ccc2nc(NC(=O)c3cc(-c4ccccc4O)n[nH]3)sc2c1,IC50,[16],1.8 µM
Cc1[nH]c2ccccc2c1C(Nc1ccccn1)c1ccccc1O (centres undefined),IC50,[5],19 µM
Nc1nc(=O)n(C2CCCO2)cc1C#CCNS(=O)(=O)C1CC1 (centres undefined),IC50,[5],2 µM
Cc1ncc(Cc2csc(CCO)c2C)c(N)n1 [3-DEAZATHIAMINE],IC50,[17],430 µM
O=P(O)(O)OP(=O)(O)OCCc1cccnc1 [PYRIDIN-3-YL-ETHYL-DIPHOSPHATE],IC50,[14],9.1 µM
Nc1nc(=O)n(C2CCCS2)cc1C#CCNS(=O)(=O)C(=O)[C@@H](O)[C@@H](O)[C@H](O)[C@H](O)CO (some centres undefined),IC50,[9],> 500 µM
same,IC50,[5],407 µM
C#CCOP(=O)(O)OP(=O)(O)O [PROP-2-YNYL DIPHOSPHATE],IC50,[18],0.75 µM
O=c1c2ccccc2nc(-c2cccnc2)n1-c1ccc(Br)cn1,IC50,[5],3 µM
C/C(=C/COC(=O)Nc1ccc(C)cc1)CO,Activity,Aquifex aeolicus,62%
O=P(O)(O)OC[C@@H](O)[C@@H](O)CO,IC50,[19],1360 µM
FC(F)(F)Oc1cccc(Cn2cnc3ccccc32)c1,IC50,[17],595 µM
C#CCCOP(=O)(O)OP(=O)(O)O [BUT-3-YNYL DIPHOSPHATE],IC50,[14],0.45 µM
Oc1c(Cc2ccccc2)c(Cl)cc2ncnn12,IC50,[16],0.14 µM
CN(O)C(=O)CCC(c1ccccc1)P(=O)(O)O (centres undefined),IC50,[20],0.0031 µM
N#Cc1cnn2c(O)c(Cc3ccccc3)c(Cl)cc12,IC50,[16],0.035 µM
CC1(C)C(=O)ON(Cc2ccccc2Cl)C1=O [KETOCLOMAZONE],IC50,[21],100 µM
same,MIC,Haemophilus influenzae,12.5 µg/mL
same,Ki,[13],23.3 µM
COc1ccc(-c2onc(C(F)(F)F)c2-c2ccc(Br)cc2)c(O)c1,IC50,[22],32 µM
CCOC(=O)C1=C(C)N=c2s/c(=C\c3cc(Br)c(O)c(Br)c3)c(=O)n2C1C1CCCS1 (centres undefined),IC50,[23],9.6 µM
same,IC50,[24],6.1 µM
CC(C)(CO)C(=O)N(O)Cc1ccccc1Cl,MIC,Haemophilus influenzae,64 µg/mL
same,IC50,[13],3.1 µM
Cc1ncc(C[n+]2csc(CCO[P@](=O)(O)OP(=O)(O)O)c2C)c(N)n1,Kd,[25],3.1 µM
same,Kd,[26],0.114 µM
COCCS(=O)(=O)NCC#Cc1cn(C2CCCS2)c(=O)nc1N (centres undefined),IC50,[9],> 500 µM
same,IC50,[5],30 µM
C[C@@](CO)(OP(=O)(O)O)[C@H](O)COP(=O)(O)CP(=O)(O)O,fold change (FC),Escherichia coli [27],1.6
O=C(O)c1ccc(-c2ccc(/C=N/NC3Nc4ccccc4S3)o2)cc1 (centres undefined),IC50,[22],33 µM
COc1cc(C#Cc2ccc(C#CCOc3cccnc3)cn2)nc(N)n1,IC50,[5],8.7 µM
CN(C)c1ccnc(C(=O)N/N=C2\N=C(N)c3c2ccc2ccccc32)c1,IC50,[12],0.018 µM
